The values below come from article PMC4941764, “Identification of 4-aminoquinoline core for the design of new cholinesterase inhibitors” (PeerJ, 2016).

The target of this assay is T1, acetylcholinesterase (eeAChE) (Electrophorus electricus, UniProt O42275).
T1 construct: gene ache
In words: Ellman assay, single concentration ([…]). The assay is classed as biochemical. (In general: Ellman's reagent forms a yellow product with free thiols.)

T1 sequence (O42275 24-633): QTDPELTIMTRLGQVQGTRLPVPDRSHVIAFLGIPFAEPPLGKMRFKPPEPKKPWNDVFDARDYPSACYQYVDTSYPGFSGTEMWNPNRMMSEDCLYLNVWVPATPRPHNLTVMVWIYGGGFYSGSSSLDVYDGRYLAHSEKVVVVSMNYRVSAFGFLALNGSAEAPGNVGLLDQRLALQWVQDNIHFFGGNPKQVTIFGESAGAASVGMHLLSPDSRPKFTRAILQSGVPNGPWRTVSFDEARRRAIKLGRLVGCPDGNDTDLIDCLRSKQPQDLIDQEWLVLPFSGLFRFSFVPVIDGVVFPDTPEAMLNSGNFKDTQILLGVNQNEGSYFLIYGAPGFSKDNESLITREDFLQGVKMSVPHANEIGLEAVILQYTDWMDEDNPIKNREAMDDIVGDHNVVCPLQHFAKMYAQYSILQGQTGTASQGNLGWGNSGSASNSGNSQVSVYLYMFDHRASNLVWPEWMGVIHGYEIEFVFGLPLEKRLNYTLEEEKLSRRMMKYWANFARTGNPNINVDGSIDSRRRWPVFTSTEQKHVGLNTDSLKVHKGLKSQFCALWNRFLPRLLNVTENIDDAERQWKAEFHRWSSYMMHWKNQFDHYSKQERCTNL

Usually inhibition stands for how much of the control response was suppressed. Low readings indicate a weak effect, high ones a strong effect. In turn, `Nc1ccnc2ccccc12` [compound 03, 4-aminoquinoline] yielded an inhibition at 10 µM of 68.3 ± 1.83%.
